Consider 17 compounds from patent publication US20240400564A1 (Syndax Pharmaceuticals, Inc, priority 2021, published 2024).

One series addresses hERG (Homo sapiens, UniProt Q12809). The series is described as follows: Patch clamp assay (hERG tail currents, whole-cell).
For series [1], the system named is MLLr leukemia cell line MV4-11. The series is described as follows: Cell proliferation assay MV4;11 (CellTiter-Glo, 72 hours). In kind it is cell-based. To be noted: Homo sapiens; MV4-11 cells, 72 hours, CellTiter-Glo; read-out: MV4; 11 IC50. Put shortly:
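Cells in IMDM/10% FBS, seeded from a 15,000 cells/ml suspension, were exposed for 72 h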

Each structure is given as a SMILES string. A value given as a limit tells only on which side of the number the result lay.

Sequence of hERG (Q12809 whole entry): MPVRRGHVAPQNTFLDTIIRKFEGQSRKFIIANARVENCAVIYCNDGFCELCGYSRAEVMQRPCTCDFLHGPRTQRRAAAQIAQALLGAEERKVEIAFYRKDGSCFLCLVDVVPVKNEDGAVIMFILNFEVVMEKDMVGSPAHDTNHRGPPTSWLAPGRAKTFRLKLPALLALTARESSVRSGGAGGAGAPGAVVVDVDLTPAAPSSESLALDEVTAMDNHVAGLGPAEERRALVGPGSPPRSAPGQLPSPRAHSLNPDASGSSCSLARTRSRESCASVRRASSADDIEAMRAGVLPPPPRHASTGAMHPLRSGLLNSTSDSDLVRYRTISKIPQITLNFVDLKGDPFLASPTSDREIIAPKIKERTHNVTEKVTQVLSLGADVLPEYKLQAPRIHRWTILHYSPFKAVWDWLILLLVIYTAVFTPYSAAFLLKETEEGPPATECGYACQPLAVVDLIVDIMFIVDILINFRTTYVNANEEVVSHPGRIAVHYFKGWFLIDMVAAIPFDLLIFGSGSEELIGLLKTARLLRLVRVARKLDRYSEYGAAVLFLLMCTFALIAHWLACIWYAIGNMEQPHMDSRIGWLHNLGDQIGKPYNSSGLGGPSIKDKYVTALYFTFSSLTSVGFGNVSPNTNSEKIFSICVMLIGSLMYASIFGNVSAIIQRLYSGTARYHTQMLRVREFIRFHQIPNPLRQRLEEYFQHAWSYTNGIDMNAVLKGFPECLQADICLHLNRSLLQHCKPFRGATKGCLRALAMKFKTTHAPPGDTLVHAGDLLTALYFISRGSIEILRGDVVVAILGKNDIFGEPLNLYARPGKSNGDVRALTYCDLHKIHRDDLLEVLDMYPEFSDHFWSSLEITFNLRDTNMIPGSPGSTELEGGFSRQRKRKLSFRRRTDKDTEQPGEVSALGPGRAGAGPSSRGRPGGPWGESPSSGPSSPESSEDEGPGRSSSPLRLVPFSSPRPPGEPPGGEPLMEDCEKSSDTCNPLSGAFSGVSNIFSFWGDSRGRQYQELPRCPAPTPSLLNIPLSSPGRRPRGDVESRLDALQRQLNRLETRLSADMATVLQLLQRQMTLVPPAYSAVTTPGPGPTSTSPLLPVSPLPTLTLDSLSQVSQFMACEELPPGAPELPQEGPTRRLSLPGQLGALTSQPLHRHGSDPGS

Take `CC(C)N(C(=O)c1cc(F)ccc1Oc1cncnc1N1CC2(CCN(C[C@@H]3CC[C@@H](NS(=O)(=O)c4cnn(C)c4Cl)CO3)CC2)C1)C(C)C` [Example 82, 2-((4-(7-(((2S,5R)-5-((5-Chloro-1-methyl-1H-pyrazole)-4-sulfonamido)tetrahydro-2H-pyran-2-yl)methyl)-2,7-diazaspiro[3.5]nonan-2-yl)pyrimidin-5-yl)oxy)-5-fluoro-N,N-diisopropylbenzamide]: the “hERG % Remaining” value was “++ (233% and ≤66%)” at hERG (10 μM compound); “+ (<33%)” on hERG (30 μM compound). In series [1], the IC50 is below 0.1 µM.
Turning to `CC(C)N(C(=O)c1cc(F)ccc1Oc1cncnc1N1CC2(CCN(C[C@@H]3CC[C@@H](NS(=O)(=O)c4cnn(C5CC5)c4)CO3)CC2)C1)C(C)C` [Example 83, 2-((4-(7-(((2S,5R)-5-((1-Cyclopropyl-1H-pyrazole)-4-sulfonamido)tetrahydro-2H-pyran-2-yl)methyl)-2,7-diazaspiro[3.5]nonan-2-yl)pyrimidin-5-yl)oxy)-5-fluoro-N,N-diisopropylbenzamide], the “hERG % Remaining” value is “+++ (≥66%)” on hERG (10 μM compound); “++ (233% and ≤66%)” on hERG (30 μM compound). The IC50 in series [1] was below 0.1 µM.
`Cc1ncc(S(=O)(=O)N[C@@H]2CC[C@@H](CN3CCC4(CC3)CN(c3ncncc3Oc3ccc(F)cc3C(=O)N(C(C)C)C(C)C)C4)OC2)s1` [Example 84, 5-Fluoro-N,N-diisopropyl-2-((4-(7-(((2S,5R)-5-((2-methylthiazole)-5-sulfonamido)tetrahydro-2H-pyran-2-yl)methyl)-2,7-diazaspiro[3.5]nonan-2-yl)pyrimidin-5-yl)oxy)benzamide]: the “hERG % Remaining” value at hERG (10 μM compound) is “++ (233% and ≤66%)”; at hERG (30 μM compound), “+ (<33%)”. In addition, in series [1], the IC50 was below 0.1 µM.
With `CC(C)N(C(=O)c1cc(F)ccc1Oc1cncnc1N1CC2(CCN(C[C@@H]3CC[C@@H](NS(=O)(=O)c4cnn(C(F)F)c4)CO3)CC2)C1)C(C)C` [Example 85, 2-((4-(7-(((2S,5R)-5-((1-(Difluoromethyl)-1H-pyrazole)-4-sulfonamido)tetrahydro-2H-pyran-2-yl)methyl)-2,7-diazaspiro[3.5]nonan-2-yl)pyrimidin-5-yl)oxy)-5-fluoro-N,N-diisopropylbenzamide], the “hERG % Remaining” value at hERG (10 μM compound) was “++ (233% and ≤66%)”; on hERG (30 μM compound), “+ (<33%)”. The IC50 in series [1] was below 0.1 µM.
As to `CC(C)N(C(=O)c1cc(F)ccc1Oc1cncnc1N1CC2(CCN(C[C@@H]3CC[C@@H](NS(=O)(=O)c4cnn(C)c4)CO3)CC2)C1)C(C)C` [Example 86, 5-Fluoro-N,N-diisopropyl-2-((4-(7-(((2S,5R)-5-((1-methyl-1H-pyrazole)-4-sulfonamido)tetrahydro-2H-pyran-2-yl)methyl)-2,7-diazaspiro[3.5]nonan-2-2-yl)pyrimidin-5-yl)oxy)benzamide], the “hERG % Remaining” value on hERG (10 μM compound) and at hERG (30 μM compound) was “+++ (≥66%)” in each case. Besides, the IC50 in series [1] was below 0.1 µM.
As for `CC(C)N(C(=O)c1cc(F)ccc1Oc1cncnc1N1CC2(CCN(C[C@@H]3CC[C@@H](NS(=O)(=O)c4ccn(C)n4)CO3)CC2)C1)C(C)C` [Example 87, 5-Fluoro-N,N-diisopropyl-2-((4-(7-(((2S,5R)-5-((1-methyl-1H-pyrazole)-3-sulfonamido)tetrahydro-2H-pyran-2-yl)methyl)-2,7-diazaspiro[3.5]nonan-2-yl)pyrimidin-5-yl)oxy)benzamide], at hERG (30 μM compound), the “hERG % Remaining” value is “+++ (≥66%)”. The IC50 in series [1] is below 0.1 µM.
Take `Cc1nc(S(=O)(=O)N[C@@H]2CC[C@@H](CN3CCC4(CC3)CN(c3ncncc3Oc3ccc(F)cc3C(=O)N(C(C)C)C(C)C)C4)OC2)co1` [Example 91, 5-Fluoro-N,N-diisopropyl-2-((4-(7-(((2S,5R)-5-((2-methyloxazole)-4-sulfonamido)tetrahydro-2H-pyran-2-yl)methyl)-2,7-diazaspiro[3.5]nonan-2-yl)pyrimidin-5-yl)oxy)benzamide]: at hERG (30 μM compound), the “hERG % Remaining” value was “++ (233% and ≤66%)”. Besides, the IC50 in series [1] is below 0.1 µM.
As to `CC(C)N(CC(F)F)C(=O)c1cc(F)ccc1Oc1cncnc1N1CC2(CCN(C[C@@H]3CC[C@@H](NS(=O)(=O)c4cnn(C)c4)CO3)CC2)C1` [Example 100, N-(2,2-Difluoroethyl)-5-fluoro-N-isopropyl-2-((4-(7-(((2S,5R)-5-((1-methyl-1H-pyrazole)-4-sulfonamido)tetrahydro-2H-pyran-2-yl)methyl)-2,7-diazaspiro[3.5]nonan-2-yl)pyrimidin-5-yl)oxy)benzamide], the “hERG % Remaining” value on hERG (10 μM compound) and on hERG (30 μM compound) was “+++ (≥66%)” in each case. Also, the IC50 in series [1] is below 0.1 µM.
In the case of `CC(C)N(CC(F)F)C(=O)c1cc(F)ccc1Oc1cncnc1N1CC2(CCN(C[C@@H]3CC[C@@H](NS(=O)(=O)c4ccn(C)n4)CO3)CC2)C1` [Example 103, N-(2,2-Difluoroethyl)-5-fluoro-N-isopropyl-2-((4-(7-(((2S,5R)-5-((1-methyl-1H-pyrazole)-3-sulfonamido)tetrahydro-2H-pyran-2-yl)methyl)-2,7-diazaspiro[3.5]nonan-2-yl)pyrimidin-5-yl)oxy)benzamide], the “hERG % Remaining” value on hERG (30 μM compound) is “+++ (≥66%)”. In addition, in series [1], the IC50 was below 0.1 µM.
The matching figures for `Cc1c(S(=O)(=O)N[C@@H]2CC[C@@H](CN3CCC4(CC3)CN(c3ncncc3Oc3ccc(F)cc3C(=O)N(CC(F)F)C(C)C)C4)OC2)cnn1C` [Example 104, N-(2,2-Difluoroethyl)-2-((4-(7-(((2S,5R)-5-((1,5-dimethyl-1H-pyrazole)-4-sulfonamido)tetrahydro-2H-pyran-2-yl)methyl)-2,7-diazaspiro[3.5]nonan-2-yl)pyrimidin-5-yl)oxy)-5-fluoro-N-isopropylbenzamide]: “+++ (≥66%)” and below 0.1 µM.
The matching figures for `Cc1nn(C)cc1S(=O)(=O)N[C@@H]1CC[C@@H](CN2CCC3(CC2)CN(c2ncncc2Oc2ccc(F)cc2C(=O)N(CC(F)F)C(C)C)C3)OC1` [Example 105, N-(2,2-Difluoroethyl)-2-((4-(7-(((2S,5R)-5-((1,3-dimethyl-1H-pyrazole)-4-sulfonamido)tetrahydro-2H-pyran-2-yl)methyl)-2,7-diazaspiro[3.5]nonan-2-yl)pyrimidin-5-yl)oxy)-5-fluoro-N-isopropylbenzamide]: “+++ (≥66%)” and below 0.1 µM.
The matching figures for `CC(C)N(C(=O)c1cc(F)ccc1Oc1cncnc1N1CC2(CCN(C[C@@H]3CC[C@@H](NS(=O)(=O)c4cnn(C)c4)CO3)CC2)C1)C1CC(F)(F)C1` [Example 156, N-(3,3-Difluorocyclobutyl)-5-fluoro-N-isopropyl-2-((4-(7-(((2S,5R)-5-((1-methyl-1H-pyrazole)-4-sulfonamido)tetrahydro-2H-pyran-2-yl)methyl)-2,7-diazaspiro[3.5]nonan-2-yl)pyrimidin-5-yl)oxy)benzamide]: “+++ (≥66%)” and below 0.1 µM.
For the compound `CCN(C(=O)c1cc(F)ccc1Oc1cncnc1N1CC2(CCN(C[C@@H]3CC[C@@H](NS(=O)(=O)N4CCC[C@H]4C)CO3)CC2)C1)C(C)C` [Example 200, N-Ethyl-5-fluoro-N-isopropyl-2-((4-(7-(((2S,5R)-5-(((R)-2-methylpyrrolidine)-1-sulfonamido)tetrahydro-2H-pyran-2-yl)methyl)-2,7-diazaspiro[3.5]nonan-2-yl)pyrimidin-5-yl)oxy)benzamide], the “hERG % Remaining” value at hERG (10 μM compound) is “++ (233% and ≤66%)”; on hERG (30 μM compound) it was “+ (<33%)”. For the same compound, the IC50 in series [1] was below 0.1 µM.
With `CCN(C(=O)c1cc(F)ccc1Oc1cncnc1N1CC2(CCN(C[C@@H]3CC[C@@H](NS(=O)(=O)N4CCC[C@@H]4C)CO3)CC2)C1)C(C)C` [Example 201, N-Ethyl-5-fluoro-N-isopropyl-2-((4-(7-(((2S,5R)-5-(((S)-2-methylpyrrolidine)-1-sulfonamido)tetrahydro-2H-pyran-2-yl)methyl)-2,7-diazaspiro[3.5]nonan-2-yl)pyrimidin-5-yl)oxy)benzamide], the “hERG % Remaining” value at hERG (10 μM compound) and on hERG (30 μM compound) was “+ (<33%)” in each case. The IC50 in series [1] was below 0.1 µM.
Regarding `CC(C)N(C(=O)c1cc(F)ccc1Oc1cncnc1N1CC2(CCN(C[C@@H]3CC[C@@H](NS(=O)(=O)N4CCC[C@@H]4C)CO3)CC2)C1)C(C)C` [Example 202, 5-Fluoro-N,N-diisopropyl-2-((4-(7-(((2S,5R)-5-(((S)-2-methylpyrrolidine)-1-sulfonamido)tetrahydro-2H-pyran-2-yl)methyl)-2,7-diazaspiro[3.5]nonan-2-yl)pyrimidin-5-yl)oxy)benzamide], on hERG (30 μM compound), the “hERG % Remaining” value is “+ (<33%)”. Besides, the IC50 in series [1] is below 0.1 µM.
For `CC(C)N(C(=O)c1cc(F)ccc1Oc1cncnc1N1CC2(CCN(C[C@@H]3CC[C@@H](NS(=O)(=O)N4CCC[C@H]4C)CO3)CC2)C1)C(C)C` [Example 203, 5-Fluoro-N,N-diisopropyl-2-((4-(7-(((2S,5R)-5-(((R)-2-methylpyrrolidine)-1-sulfonamido)tetrahydro-2H-pyran-2-yl)methyl)-2,7-diazaspiro[3.5]nonan-2-yl)pyrimidin-5-yl)oxy)benzamide], at hERG (30 μM compound), the “hERG % Remaining” value is listed as “+ (<33%)”. The IC50 in series [1] was below 0.1 µM.
The corresponding values for `C[C@@H]1COC[C@@H](C)N1C(=O)c1cc(F)ccc1Oc1cncnc1N1CC2(CCN(C[C@@H]3CC[C@@H](NS(=O)(=O)N4CCC[C@H]4C)CO3)CC2)C1` [Example 208, (R)-N-((3R,6S)-6-((2-(5-(2-((3R,5R)-3,5-Dimethylmorpholine-4-carbonyl)-4-fluorophenoxy)pyrimidin-4-yl)-2,7-diazaspiro[3.5]nonan-7-yl)methyl)tetrahydro-2H-pyran-3-yl)-2-methylpyrrolidine-1-sulfonamide] are “+++ (≥66%)” and below 0.1 µM.
